Test results taken from PubChem BioAssay (NCI).
Several values for one entry are separate records, joined by “and”; a condition that tells them apart may be missing. Equal entries are not always repeated.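 These data come from cells grown in 96-well plates and exposed to compound for 48 hours at five concentrations. The concentration for 50% growth inhibition is given as GI50. TGI marks complete inhibition of growth.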

Test system: OVCAR-5 ovarian
Assay: DTP human tumour cell line panel, 48 h

Structure (SMILES)	TGI [µM]	GI50 [µM]
COc1ccc([N+](=O)[O-])c2c(NCCCN(C)C)c3ccccc3nc12	0.984	
CC(=O)OCC1OC(N2C(=O)C(=O)c3cc(C)ccc32)C(OC(C)=O)C(OC(C)=O)C1OC(C)=O (stereo not given)	> 100	
O=C1c2ccccc2-c2cccc3ccc(Cc4ccc5ccccc5c4)c1c23	> 100	
Cc1cc(C)c([O-])c(CN(C)CCN(C)Cc2cc(C)cc(C)c2[O-])c1.O=C([O-])c1cccc(C(=O)[O-])n1.[Ti+4]	> 100	2.31
CCOC(=O)C(Cc1c[nH]c2ccc(N)cc12)(NC(C)=O)C(=O)OCC	> 1000	> 1000
Nc1ccc(N(S(=O)(=O)c2ccccc2)S(=O)(=O)c2ccccc2)c(Cl)c1	> 100	
CCCCc1c2c(nc3c1CCC/C3=C\c1ccccc1)C(=O)CCC2	43.1	
COc1ccc([N+]2=NC(c3ccc([N+](=O)[O-])cc3)=NN(c3ccccc3)C2)cc1	> 100	
C=CC1(C(=O)O)CCC(C(C)(C)C)CC1 (stereo not given)	> 100	
NC(=O)C(=Cc1ccc(C(O)P(=O)(O)O)cc1)C(N)=O (stereo not given)	> 100	
CSc1nc(C)c2c(n1)SCC2	> 10	
CC(C)(C#N)c1cc(Cn2cncn2)cc(C(C)(C)C#N)c1	> 10000	> 10000
C=CCC(N[C@H](CO)c1ccccc1)c1ccc2ccccc2n1 (stereo not given in full)	> 100	> 100
O=C(Nc1cc(Cl)c(Cl)cc1Cl)C(=O)C1C=CCS1(=O)=O (stereo not given)	> 100	
CCNC(=O)CCN(C(=O)O)S(=O)(=O)c1ccc(NC(=O)c2ccccc2)cc1	> 100	
O=C(/C=C/c1ccc([N+](=O)[O-])o1)N1CCN(Cc2ccccc2)CC1	31.1	
CC1C[C@@]2(c3ccccc3)C(=O)CCC[C@H]2N1 (stereo not given in full)	> 100	
O=[N+]([O-])c1cccc(/C=N\NS(=O)(=O)c2ccc(Cl)cc2)c1O	> 100	
CC(C)c1ccc(C(=O)Nc2nc3ccc(O)cc3s2)cc1	> 100	7.68
CC1=C(C(=O)Nc2ccccc2C)C(c2ccc(Cl)c(Cl)c2)C(C(=O)Nc2ccccc2C)=C(C)N1	53.5	
CCCCOC(=O)NC(=O)c1cn(CCCOC(=O)CCCCCCCCC(=O)OCCCn2cc(C(=O)NC(=O)OCCCC)c(=O)[nH]c2=O)c(=O)[nH]c1=O	> 100	
Cc1[nH]c2ccccc2c1C1Cc2ccccc2N1C(=O)/C=C\C(=O)O (stereo not given)	> 100	
CCN(CC)CCC(=O)NC1c2ccc(Cl)cc2Oc2c(C)cccc21 (stereo not given)	29.2	

Test system: PC-3 prostate
Assay: DTP human tumour cell line panel, 48 h

Structure (SMILES)	GI50 [µM]	TGI [µM]
COc1cc(/C=C/C(=O)CC(=O)/C=C/c2cc(OC)c(OC)c(OC)c2)cc(OC)c1OC	3.02	> 100
O=[N+]([O-])c1cc(Cl)c(Cl)c([N+](=O)[O-])c1Cl	1.81	3.57
Cc1c[nH]c2c(O)cc3c(c12)[C@H](CCl)CN3C(=O)c1cc2cc(NC(=O)Nc3ccc4[nH]c(C(=O)N5C[C@@H](CCl)c6c5cc(O)c5[nH]cc(C)c65)cc4c3)ccc2[nH]1	0.023	
COc1ccc([N+](=O)[O-])c2c(NCCCN(C)C)c3ccccc3nc12		0.372
Cc1cc(C)c([O-])c(CN(C)CCN(C)Cc2cc(C)cc(C)c2[O-])c1.O=C([O-])c1cccc(C(=O)[O-])n1.[Ti+4]	2.7	> 100
CCOC(=O)C(Cc1c[nH]c2ccc(N)cc12)(NC(C)=O)C(=O)OCC	> 1000	> 1000
Nc1ccc(N(S(=O)(=O)c2ccccc2)S(=O)(=O)c2ccccc2)c(Cl)c1		> 100
CSc1nc(C)c2c(n1)SCC2		> 10
CCC1(CC)C(=O)OC(=O)C1(CC)CC		> 100
CC(C)(C#N)c1cc(Cn2cncn2)cc(C(C)(C)C#N)c1	792	> 10000
C=CCC(N[C@H](CO)c1ccccc1)c1ccc2ccccc2n1 (stereo not given in full)	> 100	> 100
CC(C)c1ccc(C(=O)Nc2nc3ccc(O)cc3s2)cc1	3.23	> 100
CCN(CC)CCC(=O)NC1c2ccc(Cl)cc2Oc2c(C)cccc21 (stereo not given)		26.7

Test system: SK-MEL-2 melanoma
Assay: DTP human tumour cell line panel, 48 h

Structure (SMILES)	GI50 [µM]	TGI
COc1cc(/C=C/C(=O)CC(=O)/C=C/c2cc(OC)c(OC)c(OC)c2)cc(OC)c1OC	5.87	78.8 µM
c1ccc2c(c1)CCC/C2=N\OCC1CO1 (stereo not given)		> 100 µM
CC/C(C)=C1\CCC(CN2CCOCC2)C1=O (stereo not given)		32 µM
COC(=O)C1C(C(=O)OC)C2(OC)c3ccccc3-c3ccccc3C12 (stereo not given)		54.5 µM
O=C1OC(CC(=O)c2ccc(Cl)c(Cl)c2)C(Cl)=C1Cl (stereo not given)		> 100 µM
CC(=O)c1cccc(N2COC(C)(C)c3nc4ccccc4n3C2)c1		> 100 µM
O=[N+]([O-])c1cccc(C2N3CCCCC3[C@@H]3c4[nH]c5ccccc5c4CCN23)c1 (stereo not given in full)		22 µM
O=[N+]([O-])c1cc(Cl)c(Cl)c([N+](=O)[O-])c1Cl	1.8	3.37 µM
Cc1c[nH]c2c(O)cc3c(c12)[C@H](CCl)CN3C(=O)c1cc2cc(NC(=O)Nc3ccc4[nH]c(C(=O)N5C[C@@H](CCl)c6c5cc(O)c5[nH]cc(C)c65)cc4c3)ccc2[nH]1		89.3 µM and 8.9e-06 µg/mL and 0.00276 µg/mL
CCOC(=O)NC(=O)c1cn(CC(=O)NCC(=O)NCC(=O)NCCCN2CCN(CCCNC(=O)CNC(=O)CNC(=O)Cn3cc(C(=O)NC(=O)OCC)c(=O)[nH]c3=O)CC2)c(=O)[nH]c1=O		> 100 µM
O=S(=O)(N/N=C/c1ccc(/C=N/NS(=O)(=O)c2ccccc2)cc1)c1ccccc1		> 100 µM
CC[C@@H]1OC2(C)CC(S(=O)(=O)c3ccccc3O)CC1O2 (stereo not given in full)		> 100 µM
CCOC(=O)C(N)C[S][Sn]([CH3])([CH3])[Cl] (stereo not given)	> 100	> 100 µM
NNC(=O)/C(=C/c1ccc(Cl)c(Cl)c1)NC(=O)c1ccccc1		> 100 µM
COc1ccc([N+](=O)[O-])c2c(NCCCN(C)C)c3ccccc3nc12		0.281 µM
CC(=O)OCC1OC(N2C(=O)C(=O)c3cc(C)ccc32)C(OC(C)=O)C(OC(C)=O)C1OC(C)=O (stereo not given)		> 100 µM

Structure (SMILES)	GI50 [µM]	TGI
O=C1c2ccccc2-c2cccc3ccc(Cc4ccc5ccccc5c4)c1c23		> 100 µM
Nc1ccc(N(S(=O)(=O)c2ccccc2)S(=O)(=O)c2ccccc2)c(Cl)c1		> 100 µM
CCCCc1c2c(nc3c1CCC/C3=C\c1ccccc1)C(=O)CCC2		33.9 µM
C=CC1(C(=O)O)CCC(C(C)(C)C)CC1 (stereo not given)		> 100 µM
NC(=O)C(=Cc1ccc(C(O)P(=O)(O)O)cc1)C(N)=O (stereo not given)		> 100 µM
CCC1(CC)C(=O)OC(=O)C1(CC)CC		> 100 µM
CC(C)(C#N)c1cc(Cn2cncn2)cc(C(C)(C)C#N)c1		3590 µM
C=CCC(N[C@H](CO)c1ccccc1)c1ccc2ccccc2n1 (stereo not given in full)	> 100	> 100 µM
O=C(Nc1cc(Cl)c(Cl)cc1Cl)C(=O)C1C=CCS1(=O)=O (stereo not given)		> 100 µM
CCNC(=O)CCN(C(=O)O)S(=O)(=O)c1ccc(NC(=O)c2ccccc2)cc1		> 100 µM
CC1C[C@@]2(c3ccccc3)C(=O)CCC[C@H]2N1 (stereo not given in full)		> 100 µM
O=[N+]([O-])c1cccc(/C=N\NS(=O)(=O)c2ccc(Cl)cc2)c1O		> 100 µM
CC(C)c1ccc(C(=O)Nc2nc3ccc(O)cc3s2)cc1	18	> 100 µM
CC1=C(C(=O)Nc2ccccc2C)C(c2ccc(Cl)c(Cl)c2)C(C(=O)Nc2ccccc2C)=C(C)N1		33.6 µM
CCCCOC(=O)NC(=O)c1cn(CCCOC(=O)CCCCCCCCC(=O)OCCCn2cc(C(=O)NC(=O)OCCCC)c(=O)[nH]c2=O)c(=O)[nH]c1=O		> 100 µM
Cc1[nH]c2ccccc2c1C1Cc2ccccc2N1C(=O)/C=C\C(=O)O (stereo not given)		39.6 µM

Test system: SK-MEL-28 melanoma
Assay: DTP human tumour cell line panel, 48 h

Structure (SMILES)	GI50 [µM]	TGI [µM]
COc1cc(/C=C/C(=O)CC(=O)/C=C/c2cc(OC)c(OC)c(OC)c2)cc(OC)c1OC	4.24	32.8
CC/C(C)=C1\CCC(CN2CCOCC2)C1=O (stereo not given)		32
COC(=O)C1C(C(=O)OC)C2(OC)c3ccccc3-c3ccccc3C12 (stereo not given)		> 100
O=C1OC(CC(=O)c2ccc(Cl)c(Cl)c2)C(Cl)=C1Cl (stereo not given)		> 100
CC(=O)c1cccc(N2COC(C)(C)c3nc4ccccc4n3C2)c1		> 100
O=[N+]([O-])c1cccc(C2N3CCCCC3[C@@H]3c4[nH]c5ccccc5c4CCN23)c1 (stereo not given in full)		29.8
O=[N+]([O-])c1cc(Cl)c(Cl)c([N+](=O)[O-])c1Cl	1.74	3.14
CCOC(=O)NC(=O)c1cn(CC(=O)NCC(=O)NCC(=O)NCCCN2CCN(CCCNC(=O)CNC(=O)CNC(=O)Cn3cc(C(=O)NC(=O)OCC)c(=O)[nH]c3=O)CC2)c(=O)[nH]c1=O		> 100
O=S(=O)(N/N=C/c1ccc(/C=N/NS(=O)(=O)c2ccccc2)cc1)c1ccccc1		> 100
CC[C@@H]1OC2(C)CC(S(=O)(=O)c3ccccc3O)CC1O2 (stereo not given in full)		> 100
CCOC(=O)C(N)C[S][Sn]([CH3])([CH3])[Cl] (stereo not given)	> 100	> 100
NNC(=O)/C(=C/c1ccc(Cl)c(Cl)c1)NC(=O)c1ccccc1		> 100
